The values that follow come from ChEMBL document CHEMBL1155873, “Sesquiterpenes from the Hainan Sponge Dysidea septosa” (J Nat Prod, 2008).

The test deals with T1, Tyrosine-protein phosphatase non-receptor type 1 (Homo sapiens, UniProt P18031).
T1 sequence (P18031 whole entry): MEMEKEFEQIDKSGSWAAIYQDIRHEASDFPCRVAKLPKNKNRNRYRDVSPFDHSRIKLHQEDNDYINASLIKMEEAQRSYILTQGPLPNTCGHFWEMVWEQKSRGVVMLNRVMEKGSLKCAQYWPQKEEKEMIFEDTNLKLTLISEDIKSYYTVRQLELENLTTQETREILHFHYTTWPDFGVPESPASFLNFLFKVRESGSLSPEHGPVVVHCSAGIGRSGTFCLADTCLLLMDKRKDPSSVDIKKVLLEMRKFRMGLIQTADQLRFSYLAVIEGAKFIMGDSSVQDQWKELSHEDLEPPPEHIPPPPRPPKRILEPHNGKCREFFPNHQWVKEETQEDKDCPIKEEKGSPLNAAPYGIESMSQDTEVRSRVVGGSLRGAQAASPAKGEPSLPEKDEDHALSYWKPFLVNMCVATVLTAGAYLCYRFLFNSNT
Nature of the test: Inhibition of human recombinant PTP1B catalytic domain.
The term IC50 denotes the concentration that inhibits the measured activity by half. For the compound `CC1=C[C@@H]2C[C@H](C)[C@]1(C)CCc1ccoc12`, the IC50 is 8.78 µM.

On to `C=C1CCC[C@@H](C)[C@@]1(C)CCc1ccoc1`, for which the IC50 was 31.1 µM.

As to `C=C1C=CC[C@@H](C)[C@@]1(C)CCC1=CC(O)OC1=O` (some centres undefined) [HYDROXYBUTENOLIDE], the IC50 is 46.7 µM.

Consider `C[C@@H]1[C@@H]2C=C[C@@](C)(OO2)[C@@]1(C)CCC1=CC(O)OC1=O` (some centres undefined) [LINGSHUIPEROXIDE], for which the half-maximal inhibitory concentration (IC50) was 31.4 µM.
